The values that follow come from patent US20080009480A1, “CYCLOPENTA[b][1,4]DIAZEPINO[6,7,1-hi]INDOLES AND DERIVATIVES” (Wyeth, priority 2000, published 2008).

Structures are written as SMILES. Read-outs that look alike come from different tables or passages of the source.

The target of series [1] is T1, human 5-hydroxytryptamine2C (h5HT2C) receptor (Homo sapiens, UniProt P28335).
T1 sequence (P28335 33-458): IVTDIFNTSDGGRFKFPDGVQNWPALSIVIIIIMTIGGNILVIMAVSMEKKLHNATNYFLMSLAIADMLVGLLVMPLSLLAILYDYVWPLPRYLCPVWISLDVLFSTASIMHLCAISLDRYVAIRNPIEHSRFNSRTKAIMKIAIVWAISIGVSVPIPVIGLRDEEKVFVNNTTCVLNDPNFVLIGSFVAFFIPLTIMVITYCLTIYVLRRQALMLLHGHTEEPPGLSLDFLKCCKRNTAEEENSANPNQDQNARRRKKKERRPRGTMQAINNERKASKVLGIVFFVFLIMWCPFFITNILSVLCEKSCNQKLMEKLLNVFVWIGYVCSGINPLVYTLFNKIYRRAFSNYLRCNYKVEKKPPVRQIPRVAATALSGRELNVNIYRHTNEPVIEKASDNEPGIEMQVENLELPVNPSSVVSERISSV
Put plainly: 5HT2C receptor binding test procedure ([125I]DOI displacement, CHO cell membranes).

The next series deals with male Sprague-Dawley rats. Put plainly: Effects of compounds on feeding behavior in rats (24 hr fast, 2 hour food intake). The class given is in vivo, rat. As to conditions: ip, dose giving 50% reduction in food intake. On the procedure:
Effects of Compounds on Feeding Behavior in Rats
Eight (8) male Sprague-Dawley rats weighing 150-180 g were separated into individual cages and acclimated to a powdered diet for 2 weeks. During this period and throughout the test procedure, the food cup and the animals were weighed daily. Following the acclimation period, animals were fasted for 24 hours and then injected with either vehicle or one of 4 doses of the test compound. Food intake was assessed at 2 and 24 hours following compound administration. Compounds to be evaluated were injected 1-2× per week until all animals had received all doses of the test compound. The order of doses were chosen using to a modified Latin Square design. Additional studies may be conducted in satieted rats at the start of the dark cycle. Compounds were injected i.p, s.c. or p.o. At the end of the study effects of the test compound on food intake was evaluated using a repeated measures ANOVA. Data were collected were 2 hour food intake (g). Data were subjected to one-way ANOVA with posthoc t-tests to assess group differences. Where appropriate, ED50 values were calculated.

Another series has as its target T2, human 5-HT2C receptor (Homo sapiens, UniProt P28335).
T2 construct: expressed in transfected cells; host or cells: CHO cells
T2 sequence (P28335 33-458): T1 sequence (P28335 33-458)
Put plainly: Stimulation of [3H] inositol monophosphate production by 5HT2C agonists in transfected CHO cells. It counts as cell-based. Conditions: read-out: 5HT2C % Emax (5HT, 100%).

For series [2] the following is noted: several animal species and humans; Cowen et al. 1995; cited from earlier work.
For series [3] the following is noted: rat; Martin et al. 1989; cited from earlier work.
The mark [4] stands for this setting: 5-HT2C Affinity DOI/Agonist Binding (Ki, μM), [125I]DOI agonist binding.

Experimental for human 5-HT2C receptor: One (1) ml of maintenance medium containing 1 μCi/ml myo-[^3H] inositol was added to each well. After 48 hours labeling, the cells were washed once with 0.5 ml DMEM containing 25 mM HEPES and 10 mM LiCl, then preincubated with the medium for 30 min (antagonists were included in this period if tested). At the end of the preincubation, the medium was removed, the cells were then incubated with test compounds (in presence of antagonists if needed) for 30 min. The reaction was terminated by removal of the incubation solution and addition of 0.5 ml ice-cold 5% PCA, followed by 15 to 30 min incubation on ice. 200 μl of 0.5 M Tes/1.5 M K2CO3 was added to each well to neutralize to pH 7, and plates were left on ice for another 15 to 30 min to precipitate all salts. The liquid and solid phases were separated by centrifugation.
A portion (350 μl) of the upper aqueous phase was applied to Dowex AG-1X8 (formate form, 100-200 mesh) columns. The columns were then washed stepwise with 10 ml of water and 10 ml of 25 mM ammonium formate to remove free myo-[^3H]inositol and deacylated phosphoinositol, respectively. Finally 10 ml of 0.2 M ammonium formate solution was applied to the columns to elute [^3H] inositol monophosphate ([^3H] IP1) directly into scintillationvials.
A 3-parameter logistic function is used to generate estimate of EC50/IC50.

For `C[C@@H]1NCCN2c3c1cccc3[C@@H]1CCC[C@@H]12` (relative stereo) [Example 12, rel-(4S,7bS,10aS)-4-Methyl-1,2,3,4,8,9,10,10a-Octahydro-7bH-Cyclopenta[b][1,4]Diazepino[6,7,1-hi]Indole], the Ki in series [1] (setting [4]) is above 5 µM.

Molecule `C[C@H]1NCCN2c3c1cccc3[C@@H]1CCC[C@@H]12` (relative stereo) [Example 13, rel-(4R,7bS,10aS)-4-Methyl-1,2,3,4,8,9,10,10a-Octahydro-7bH-Cyclopenta[b][1,4]Diazepino[6,7,1-hi]Indole] registered a Ki in series [1] (setting [4]) of 0.31 µM.

As to `CC1CN2c3c(cccc3C3CCCC32)CN1` (single isomer, unassigned) [Example 7], the Ki in series [1] (setting [4]) came out at 6 µM.

On to `CC1CN2c3c(cccc3C3CCCC32)CN1` (single isomer, unassigned) [Example 8], for which the Ki in series [1] (setting [4]) came to 5.9 µM.

Take `CC1CN2c3c(cccc3C3CCCC32)CN1` (single isomer, unassigned) [Example 9]: the Ki in series [1] (setting [4]) came out at 0.91 µM.

As for `CC1CN2c3c(cccc3C3CCCC32)CN1` (single isomer, unassigned) [Example 10], the Ki in series [1] (setting [4]) is 4.3 µM.

As to `OC[C@H]1CN2c3c(cccc3C3CCCC32)CN1` (single isomer, unassigned) [Example 11], the Ki in series [1] (setting [4]) was determined as 1.9 µM.

Broadly, the melting point is the temperature, or range, at which the solid turns liquid. Take `c1cc2c3c(c1)c1c(n3CCNC2)CCC1` [Example 1, 1,2,3,4,9,10-Hexahydro-8H-cyclopenta[b][1,4]diazepino[6,7,1-hi]indole]: the melting point was 66 to 68 °C.

Usually Emax stands for the greatest response seen or fitted, relative to the assay's reference. Consider `c1cc2c3c(c1)C1CCCC1N3CCNC2` (stereo not drawn) [Example 2, 1,2,3,4,8,9,10,10a-octahydro-7bH-cyclopenta[b][1,4]diazepino[6,7,1-hi]indole], for which the ED50 with male Sprague-Dawley rats (Rattus norvegicus, read-out: ED50) was determined as 8.05 mg/kg. Further, the Emax at human 5-HT2C receptor was determined as 110%.

As to `c1cc2c3c(c1)[C@@H]1CCC[C@@H]1N3CCNC2` [Example 4A, (7bS,10aS)-1,2,3,4,8,9,10,10a-octahydro-7bH-cyclopenta-[b][1,4]diazepino-[6,7,1-hi]indole], the Emax on human 5-HT2C receptor was determined as 40%.

For the molecule `c1cc2c3c(c1)[C@H]1CCC[C@H]1N3CCNC2` [Example 4B, 7bR,10aR)-1,2,3,4,8,9,10,10a-octahydro-7bH-cyclopenta-[b][1,4]diazepino[6,7,1-hi]indole], the “ED50” value with male Sprague-Dawley rats is reported as 2.93 mg/kg.

Turning to `Cc1cc2c3c(c1)c1c(n3CCNC2)CCC1` [Example 6, 6-Methyl-1,2,3,4,9,10-hexahydro-8H-cyclopenta[b][1,4]diazepino[6,7,1-hi]indole], the melting point lay within 168 to 170 °C. Further, the Ki in series [1] (read-out: 5HT2C Affinity DOI/Agonist binding (Ki), [125I]DOI agonist binding) turned out to be 0.985 µM.

Take `CSc1ccc2c(c1)C(N1CCN(C)CC1)Cc1ccccc1S2` (stereo not drawn) [Methiothepin, reference compound]: in series [1] (reference compounds, [125I]DOI binding, h5HT2C in CHO membranes, read-out: Ki value and 95% confidence interval), the Ki is 0.0046 µM.

As usually defined, the Kd is the equilibrium constant for the complex coming apart. For `COc1cc(CC(C)N)c(OC)cc1I` (stereo not drawn) [[^125I] DOI, reference compound], in series [1] (read-out: dissociation constant, KD of [125I] DOI at the human serotonin 5HT2C receptor, saturation binding with increasing concentrations of [125I] DOI), the Kd turned out to be 0.4 nM.

In the case of `Clc1cccc(N2CCNCC2)c1` [mCPP, meta-chlorophenylpiperazine], in series [2], the “effect on food intake” value is “decreases food intake”. For the same molecule, the “effect on conditioned avoidance responding (CAR)” value in series [3] is recorded as “block conditioned avoidance responding”.
